Results on six compounds are retold here after ChEMBL document CHEMBL3861963, “Hypocriols A-F, Heterodimeric Botryane Ethers from Hypocrea sp., an Insect-Associated Fungus” (J Nat Prod, 2016).

For orientation: IC50 means the concentration needed to halve the response being measured. A low value points to higher potency.

What all share (format): functional, cell-based
A short description of test [1]: Antiproliferative activity against human HeLa cells measured after 24 hrs by CCK8 assay. (Tetrazolium assays rely on reduction of a dye to a coloured formazan, in cell work by metabolically active cells.)
A short description of test [2]: Antiproliferative activity against human HCT116 cells measured after 24 hrs by CCK8 assay. Particulars: HCT-116, 24 h.
The nature of test [3]: Antiproliferative activity against human A549 cells measured after 24 hrs by CCK8 assay. The following applies: A549, 24 h.
The nature of test [4]: Antiproliferative activity against human MCF7 cells measured after 24 hrs by CCK8 assay. Particulars: MCF7, 24 h.

With `CC(=O)O[C@H]1C[C@@H](C)[C@@H]2[C@@H](OCc3c(C)ccc4c3[C@@](C)(CO)CC4(C)C)OC[C@@]3(C)CC(C)(C)[C@H]1[C@]23O`, the IC50 was 4.6 µM in test [1], 2.7 µM in test [2], 15.3 µM in test [3] and 23.6 µM in test [4].

Consider `CC(=O)O[C@H]1C[C@@H](C)[C@@H]2[C@@H](OC3OC[C@@]4(C)CC(C)(C)c5ccc(C)c3c54)[C@H](O)[C@@]3(C)CC(C)(C)[C@H]1[C@]23O` (some centres undefined), for which the IC50 in test [1] turned out to be 3.1 µM.

Consider `CC(=O)O[C@H]1C[C@@H](C)[C@@H]2[C@@H](O)[C@H](O[C@@H]3OC[C@@]4(C)CC(C)(C)c5ccc(C)c3c54)[C@@]3(C)CC(C)(C)[C@H]1[C@]23O`, for which the IC50 in test [1] is 11.8 µM; in test [2], 17.5 µM; in test [4], 48.3 µM.

`CC(=O)O[C@H]1C[C@@H](C)[C@@H]2[C@@H](OC[C@@]3(C)CC(C)(C)c4ccc(C)c(CO)c43)OC[C@@]3(C)CC(C)(C)[C@H]1[C@]23O`: the figures for the IC50 in test [1], in test [2] and in test [4] were 43.6 µM, 23 µM and 48.3 µM, respectively.

Take `CC(=O)O[C@H]1C[C@@H](C)[C@@H]2[C@@H](O)[C@H](O[C@H]3OC[C@@]4(C)CC(C)(C)c5ccc(C)c3c54)[C@@]3(C)CC(C)(C)[C@H]1[C@]23O`: the IC50 in test [1] came out at 7.7 µM; in test [2] it was 18.6 µM; in test [3], 25.3 µM; in test [4] it was 19.7 µM.

On to `CO[C@H]1O[C@@H](O[C@H]2[C@H](O)[C@H]3[C@H](C)C[C@H](OC(C)=O)[C@H]4C(C)(C)C[C@@]2(C)[C@@]34O)[C@@]2(C)CC(C)(C)c3ccc(C)c1c32`, for which the IC50 in test [1] is 3.8 µM; in test [2] it was 18.8 µM; in test [3], 46.7 µM; in test [4], 34.2 µM.
